{"source": "paper PMC8355244", "about": "“A fragment-based approach identifies an allosteric pocket that impacts malate dehydrogenase activity” (Communications Biology, 2021)", "biological_target": "T1, PfMDH (Plasmodium falciparum, UniProt Q6VVP7)", "T1 construct": "The full-length WT PfMDH gene was cloned into pETM-13; made in house; host or cells: E. coli Rosetta 2 (DE3) pLysS", "T1 sequence (Q6VVP7 entry or part of it)": "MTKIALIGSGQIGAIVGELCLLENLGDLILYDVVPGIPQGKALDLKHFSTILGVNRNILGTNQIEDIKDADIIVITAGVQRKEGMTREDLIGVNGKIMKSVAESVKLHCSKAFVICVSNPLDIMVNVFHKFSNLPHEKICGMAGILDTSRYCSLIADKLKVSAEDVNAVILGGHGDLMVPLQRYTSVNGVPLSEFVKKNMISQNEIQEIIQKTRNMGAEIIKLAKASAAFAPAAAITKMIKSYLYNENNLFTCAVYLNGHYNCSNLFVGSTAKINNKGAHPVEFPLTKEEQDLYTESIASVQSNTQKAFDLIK", "experiment": "Thermal shift assay (TSA)", "format": "binding", "details": "for TSA melting curve raw signal: triplicate columns; for TSA melting curve raw fluorescence signal: three replicate columns", "experimental": "The TSA experiment was conducted in a BioRad CSX 96 (Biorad). Each reaction consisted of 1 mM of compound (100 mM stock in 100% (v/v) DMSO) and 10 μM PfMDH in 100 mM Na–phosphate buffer pH 7.4, 400 mM NaCl, and 10× Sypro Orange (Invitrogen) for a total volume of 100 μl. Control experiments were performed with 1% (v/v) DMSO. Inflection points were determined using BioRad CFX96™ control software. Generally, a temperature increase of over 1 °C is interpreted as a result of the stabilization of the protein-ligand interaction. On the contrary, a negative shift is considered a destabilization caused by the fragment.", "note": "Several values for one entry are separate records, joined by “and”; a condition that tells them apart may be missing. Equal entries are not always repeated.", "data": [{"smiles": "Cc1ccc(-c2csc(N)n2)cc1C", "note": "[compound 5a]", "values": [{"measurement": "TSA melting curve raw signal", "setting": "Temperature 42", "value": "3988,71833711846 and 3998,73387424263 and 4016,77538143681"}, {"measurement": "TSA melting curve raw signal", "setting": "Temperature 42.5", "value": "4021,21607007206 and 4019,84430210471 and 4054,60967755587"}, {"measurement": "TSA melting curve raw signal", "setting": "Temperature 43", "value": "4057,66089779623 and 4044,0111947974 and 4095,39361771176"}, {"measurement": "TSA melting curve raw signal", "setting": "Temperature 43.5", "value": "4098,50799079596 and 4071,35680793258 and 4139,49703067488"}, {"measurement": "TSA melting curve raw signal", "setting": "Temperature 44", "value": "4143,7029279742 and 4102,93490558282 and 4187,23267299696"}, {"measurement": "TSA melting curve raw signal", "setting": "Temperature 44.5", "value": "4193,76415817757 and 4139,12758979339"}, {"measurement": "TSA melting curve raw fluorescence signal", "setting": "Temperature 73.5", "value": "6299,79889324093 and 6231,78067625527 and 6109,60097267495"}, {"measurement": "TSA melting curve raw fluorescence signal", "setting": "Temperature 74", "value": "6263,77685489112 and 6199,60301810331 and 6079,58574419186"}, {"measurement": "TSA melting curve raw fluorescence signal", "setting": "Temperature 74.5", "value": "6227,81230039343 and 6168,07294306546 and 6050,3648537714"}, {"measurement": "TSA melting curve raw fluorescence signal", "setting": "Temperature 75", "value": "6191,69391237371 and 6136,98106377792 and 6022,22137708791"}, {"measurement": "TSA melting curve raw fluorescence signal", "setting": "Temperature 75.5", "value": "6155,53394325777 and 6106,56217628376 and 5994,69779058543"}, {"measurement": "TSA melting curve raw fluorescence signal", "setting": "Temperature 76", "value": "6119,21897947977 and 6076,80705748139 and 5967,4462924716"}, {"measurement": "TSA melting curve raw fluorescence signal", "setting": "Temperature 76.5", "value": "6082,92591216179 and 6047,4145361092 and 5940,31651314489"}, {"measurement": "TSA melting curve raw fluorescence signal", "setting": "Temperature 77", "value": "6046,49720538895 and 6018,41753205572 and 5913,27495012434"}, {"measurement": "TSA melting curve raw fluorescence signal", "setting": "Temperature 77.5", "value": "6010,50289688288 and 5990,00501222795 and 5885,78980691114"}, {"measurement": "TSA melting curve raw fluorescence signal", "setting": "Temperature 78", "value": "5974,68191071035 and 5961,9413128759 and 5858,29554785782"}, {"measurement": "TSA melting curve raw fluorescence signal", "setting": "Temperature 78.5", "value": "5938,84446109596 and 5933,98335794503 and 5831,1047548002"}, {"measurement": "TSA melting curve raw fluorescence signal", "setting": "Temperature 79", "value": "5902,97195912381 and 5906,58331664414 and 5804,43914738993"}, {"measurement": "TSA melting curve raw fluorescence signal", "setting": "Temperature 79.5", "value": "5867,41053847852 and 5879,50936774398 and 5777,86836204367"}, {"measurement": "TSA melting curve raw fluorescence signal", "setting": "Temperature 80", "value": "5831,53193853565 and 5852,76984504973 and 5751,94689709266"}, {"measurement": "TSA melting curve raw fluorescence signal", "setting": "Temperature 80.5", "value": "5795,82019427429 and 5826,58557638173 and 5726,2038969697"}, {"measurement": "TSA melting curve raw fluorescence signal", "setting": "Temperature 81", "value": "5760,30095342266 and 5801,18894213247 and 5700,36557719877"}, {"measurement": "TSA melting curve raw fluorescence signal", "setting": "Temperature 81.5", "value": "5725,24994225392 and 5776,10279717956 and 5674,32010159986"}, {"measurement": "TSA melting curve raw fluorescence signal", "setting": "Temperature 82", "value": "5690,32532905286 and 5751,3477386949 and 5648,72005725552"}, {"measurement": "TSA melting curve raw fluorescence signal", "setting": "Temperature 82.5", "value": "5655,78245522646 and 5726,77680893998 and 5623,03287837809"}, {"measurement": "TSA melting curve raw fluorescence signal", "setting": "Temperature 83", "value": "5621,55211537617 and 5702,38981297221 and 5597,5741352507"}, {"measurement": "TSA melting curve raw fluorescence signal", "setting": "Temperature 83.5", "value": "5587,90100461892 and 5677,89080987549 and 5572,13715933177"}, {"measurement": "TSA melting curve raw fluorescence signal", "setting": "Temperature 84", "value": "5554,68764858678 and 5653,54864689514 and 5546,61264074355"}, {"measurement": "TSA melting curve raw fluorescence signal", "setting": "Temperature 84.5", "value": "5522,12797974512 and 5629,23115607744 and 5520,89063035555"}, {"measurement": "TSA melting curve raw fluorescence signal", "setting": "Temperature 85", "value": "5490,3943722303 and 5605,20109514197 and 5495,02372927899"}, {"measurement": "TSA melting curve raw fluorescence signal", "setting": "Temperature 85.5", "value": "5459,26859138261 and 5580,93868945953 and 5469,03090217972"}, {"measurement": "TSA melting curve raw fluorescence signal", "setting": "Temperature 86", "value": "5428,58283846294 and 5556,95201224284 and 5443,19308365262"}, {"measurement": "TSA melting curve raw fluorescence signal", "setting": "Temperature 86.5", "value": "5398,09747442684 and 5532,99737771582 and 5417,41903670835"}, {"measurement": "TSA melting curve raw fluorescence signal", "setting": "Temperature 87", "value": "5367,90135308437 and 5508,96565185791 and 5391,30496945424"}, {"measurement": "TSA melting curve raw fluorescence signal", "setting": "Temperature 87.5", "value": "5337,34531670684 and 5484,37750610498 and 5364,66521912081"}, {"measurement": "TSA melting curve raw fluorescence signal", "setting": "Temperature 88", "value": "5306,8503048902 and 5459,61999119873 and 5337,15073673697"}, {"measurement": "TSA melting curve raw fluorescence signal", "setting": "Temperature 88.5", "value": "5276,4616972104 and 5434,08494262397 and 5308,68599271431"}, {"measurement": "TSA melting curve raw fluorescence signal", "setting": "Temperature 89", "value": "5246,27326568905 and 5407,79046445709 and 5279,36241888361"}, {"measurement": "TSA melting curve raw fluorescence signal", "setting": "Temperature 89.5", "value": "5216,45044474314 and 5380,95498835197 and 5249,45359350464"}, {"measurement": "TSA melting curve raw fluorescence signal", "setting": "Temperature 90", "value": "5187,98991931244"}]}]}
